From patent US10703760B2, “Morphic forms of marizomib and uses thereof” (Celgene International II Sàrl, priority 2016, dated 2020)

Columns and labels:
Format in all cases: physicochemical
[1] = Dynamic vapor sorption (DVS) of Sample 4
Description: Prior to any testing, Sample 4 was characterized by XRPD, TGA, DSC, 1HNMR, and DVS. The results are given below in Table-8. The Corresponding figure numbers are given in the right hand column.

[2] = Variable temperature XRPD; settings: 25° C. to 160° C.; listed as morphic Form I
Method: Samples run under non-ambient conditions were mounted on a silicon wafer with heat-conducting compound. The sample was then heated to the appropriate temperature at 20° C./min and subsequently held isothermally for 1 minute before data collection was initiated.

[3] = XRPD after storage for four years at 2-8° C.
Description: Without wishing to be bound by theory, the results of FIGS. 5 and 6 are further supported by FIG. 7. […] (710).

[4] = Polymorph screen of marizomib Sample 4 (evaporation, cooling, solvent/antisolvent, slurry, grinding, heat stress, amorphous attempts)
Method: For slow evaporation (SE), solutions containing marizomib Sample 4 in selected solvents were allowed to evaporate at ambient temperature from vials covered with perforated aluminum foil. For fast evaporation (FE), solutions containing marizomib Sample 4 in selected solvents were allowed to evaporate at ambient temperature from open vials. The results are given below in Table-10. For flash evaporation, […] of disordered marizomib Sample 4 were added dropwise to pre-warmed glass vials, allowing the solvent to flash evaporate immediate upon contact. Resulting solids were collected for analysis. The corresponding figure numbers are given in the right hand column.
For crash cooling (CC), concentrated solutions of marizomib Sample 4 were prepared at elevated temperature and filtered through pre-warmed 0.2-μm nylon filters into a clean vial pre-chilled in a dry ice/acetone bath. For fast cooling (FC) and slow cooling (SC), solutions containing marizomib Sample 4 in selected solvents at elevated temperatures in sealed vials. Solutions were then filtered into clean vials with 0.2-μm nylon filters and removed from the heating plate and left at ambient conditions (FC) or allowed to cool to specified temperature on the heating plate (SC). The results are given below in Table-11. As set forth below, the ratio of solvent mixtures are given by volume. Temperature and time are approximate. […]

[5] = Cocrystal screen of marizomib

## C[C@@]12OC(=O)[C@]1([C@@H](O)[C@@H]1C=CCCC1)NC(=O)[C@@H]2CCCl [Sample 4, marizomib]
[1]; 5-75% RH
  DVS weight change: +0.039 wt % (5-75% RH)
[1]; 75-95% RH
  DVS weight change: +1.158 wt % (75-95% RH)
[1]; 95-5% RH
  DVS weight change: −1.276 wt % (95-5% RH)
[1]; at 5% RH
  DVS weight change: −0.035 wt % (at 5% RH)

## C[C@@]12OC(=O)[C@]1([C@@H](O)[C@@H]1C=CCCC1)NC(=O)[C@@H]2CCCl [marizomib]
[2]
  Morphic form on heating (variable temperature XRPD): stable even at elevated temperatures
[3]
  XRPD spectra initially versus after storage: substantially identical
[4]
  Morphic form observed after exposure to solvents and anti-solvents: only morphic Form I was observed
[5]; about 117 experiments, 46 coformers/counterions
  Cocrystal formation: cocrystal formation did not occur
[5]; coformer (2-hydroxypropyl)-β-cyclodextrin (1:1), MeOH/acetone, slurry 50° C. 2 days, supernatant decanted, SE, RT
  XRPD Results: MRZ
[5]; coformer (2-hydroxypropyl)-β-cyclodextrin (2:1), H2O/ACN, slurry 50° C. 2 days, slurry RT 6 days, SE, RT
  XRPD Results: MRZ
[5]; coformer Acetic acid (1:2), acetone, stir, RT, 5 days, cool 2-8° C., 3 days, SE, RT
  XRPD Results: MRZ
[5]; coformer Acetic acid (large excess), slurry, RT
  XRPD Results: MRZ
[5]; coformer Adenine (1:1), EtOH, slurry, RT, 5 days
  XRPD Results: MRZ
[5]; coformer Benzoic acid (1:5), MEK:MIBK (20:80), slurry, RT, 7 days
  XRPD Results: MRZ
[5]; coformer Benzoic acid (2:1), EtOAc, SE, RT
  XRPD Results: MRZ
[5]; coformer Caffeine (1:3), DMF:anisole (25:75), slurry, RT, 6 days
  XRPD Results: Caffeine
[5]; coformer DL-malic acid (1:3), dioxane, slurry 60° C. O/N, stir RT 1 day, FE, RT
  XRPD Results: MRZ
[5]; coformer Gentisic acid (1:1), t-BuOH, slurry, 50° C., 2 days
  XRPD Results: MRZ
[5]; coformer Gentisic acid (1:5), MEK:IPA (20:80), slurry, RT, 6 days
  XRPD Results: MRZ
[5]; coformer Gentisic acid (2:1), ACN, FC, 60° C. to RT
  XRPD Results: MRZ
[5]; coformer Glutaric acid (1:3), EtOH, slurry, RT, 6 days
  XRPD Results: MRZ
[5]; coformer Glycolic acid (1:2), acetone, SE, RT
  XRPD Results: MRZ
[5]; coformer Hydantoin (1:1), 2:1 dioxane:H2O, slurry, RT
  XRPD Results: MRZ
[5]; coformer Hydantoin (1:3), H2O/ACN, slurry 60° C. overnight, stir RT 1 day
  XRPD Results: MRZ
[5]; coformer L-Serine (1:1), H2O/THF, stir RT 3 days, SE, RT
  XRPD Results: MRZ
[5]; coformer L-Serine (1:3), H2O/MeOAc, slurry 60° C. O/N, stir RT 1 day, FE, RT
  XRPD Results: MRZ
[5]; coformer L-alanine (1:1), MeOH, slurry 60° C. O/N, slurry RT 1 day
  XRPD Results: MRZ
[5]; coformer L-arginine (1:1), HFIPA/dioxane, stir, RT, ~25 minutes
  XRPD Results: MRZ
[5]; coformer L-ascorbic acid (1:1), IPA/MeOH at 50° C., FC to RT
  XRPD Results: MRZ
[5]; coformer L-cysteine (1:1), grind ~10 minutes, EtOH/dioxane (50/50), temperature cycle RT and 50° C.
  XRPD Results: MRZ
[5]; coformer L-lysine (1:1), HFIPA/THF, stir, RT, ~35 minutes
  XRPD Results: MRZ
[5]; coformer L-proline (sat'd in IPA at 50° C.), added to MRZ at 50° C., temp cycle (50° C.-RT)
  XRPD Results: MRZ
[5]; coformer L-proline sat'd in H2O/MeOH 50/50 v/v, slurry 50° C. 2 days, slurry RT 3 days
  XRPD Results: L-proline
[5]; coformer Maleic acid (1:1), nitromethane, SC, 50° C. to RT
  XRPD Results: MRZ
[5]; coformer Maleic acid (1:3), 1-PrOH, slurry, RT, 6 days
  XRPD Results: MRZ
[5]; coformer Nicotinamide (1:1), ACN, FC, 70° C. to RT
  XRPD Results: MRZ
[5]; coformer Orotic acid (2:1), nitromethane, slurry, 50° C., 6 days
  XRPD Results: MRZ
[5]; coformer Oxalic acid (1:2), EtOH/MEK, stir, RT, 7 days
  XRPD Results: MRZ
[5]; coformer Saccharin (1:1), IPA, FC, 70° C. to RT
  XRPD Results: MRZ
[5]; coformer Salicylic acid (1:1), EtOAc:toluene (50:50), FC, 75° C. to RT
  XRPD Results: MRZ
[5]; coformer Salicylic acid (1:3), EtOH/MIBK, stir, RT
  XRPD Results: MRZ
[5]; coformer Succinic acid (1:2), MeOH/acetone, stir, RT, 5 days
  XRPD Results: MRZ
[5]; coformer Thymine (1:1), MeOH/EtOAc, slurry 50° C. 2 days, slurry RT 6 days
  XRPD Results: Thymine
[5]; coformer Urea (2:1), EtOAc, FC, 50° C. to RT
  XRPD Results: MRZ
